Structures are written as SMILES. Where only a bound is given, the exact number is not on record here.

HCV RNA-dependent RNA polymerase (NS5B), sequence (P26663 2420-3010): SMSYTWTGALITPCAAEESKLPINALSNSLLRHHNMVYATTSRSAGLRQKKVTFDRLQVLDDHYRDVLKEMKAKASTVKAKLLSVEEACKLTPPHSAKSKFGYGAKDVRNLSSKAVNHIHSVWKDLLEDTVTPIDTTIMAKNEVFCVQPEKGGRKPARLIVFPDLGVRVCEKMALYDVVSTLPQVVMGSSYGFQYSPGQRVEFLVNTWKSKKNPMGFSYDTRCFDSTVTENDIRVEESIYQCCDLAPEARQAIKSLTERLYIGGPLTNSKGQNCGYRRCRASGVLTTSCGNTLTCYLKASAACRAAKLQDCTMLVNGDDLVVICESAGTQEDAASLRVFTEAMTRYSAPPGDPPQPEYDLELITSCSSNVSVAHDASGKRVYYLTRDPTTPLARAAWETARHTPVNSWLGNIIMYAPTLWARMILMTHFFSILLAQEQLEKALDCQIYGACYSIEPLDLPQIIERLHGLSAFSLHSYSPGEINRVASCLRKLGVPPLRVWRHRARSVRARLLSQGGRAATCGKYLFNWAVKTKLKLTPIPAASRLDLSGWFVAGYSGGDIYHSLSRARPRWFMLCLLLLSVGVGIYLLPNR

This test has as its target HCV RNA-dependent RNA polymerase (NS5B) (Hepatitis C virus genotype 1b (isolate BK) (HCV), UniProt P26663). The test is described as follows: RNA-Dependent RNA HCV NS5B (polymerase) Assay and IC50 Determination. The test is classed as biochemical. Particulars: purified HCV NS5B polymerase, polyA:U16 substrate, 32P-UTP incorporation; read-out: IC50. On the procedure:
RNA-Dependent RNA HCV NS5B (polymerase) Assay and IC50 Determination.
The reaction mixtures consisted of 50 mM Hepes-KOH, pH 7.5, 5 mM MgCl2, 5 mM DTT, 2% glycerol, 0.01% Triton® X-100, 0.5 uM polyA:U16 substrate, purified HCV RNA-dependent RNA polymerase, 10 μM UTP, and ^32P-UTP (Perkin Elmer). The reaction mixtures incubated at 30° C. for 60 minutes, and then filtered through Zeta probe membrane (BioRad). The filter was washed with 5×SSC (75 mM sodium citrate, pH 7 and 750 mM NaCl), and the radiolabeled RNA products were quantitated by microbeta (Perkin Elmer). For IC50 determination, different concentrations of inhibitors were added to the polymerase reaction mixtures, and incubated at 37° C. for 60 minutes. IC50 values were determined using GraFit (Erithaus software).
Table 1 presents IC50 data obtained using the biochemical assay to test representative compounds. Data are presented as follows: “+++” means <0.1 μM; “++” means ≥0.1 μM but <1.0 μM; “+” means ≥1.0 μM.
`CNC(=O)c1c(-c2ccc(F)cc2)oc2cc(N(CCOCCOCc3ccc(C(=O)OC)cc3)S(C)(=O)=O)c(C3CC3)cc12` [Compound 06-6B, 4-[2-(2-{[5-Cyclopropyl-2-(4-fluoro-phenyl)-3-methylcarbamoyl-benzofuran-6-yl]-methanesulfonyl-amino}-ethoxy)-ethoxymethyl]-benzoic Acid Methyl Ester]: the IC50 (commonly the midpoint of a concentration-inhibition curve) is more than 1000 nM. As for `CNC(=O)c1c(-c2ccc(F)cc2)oc2cc(N(CCOCCOCc3cccc(C(=O)OC)c3)S(C)(=O)=O)c(C3CC3)cc12` [Compound 06-6C, 3-[2-(2-{[5-Cyclopropyl-2-(4-fluoro-phenyl)-3-methylcarbamoyl-benzofuran-6-yl]-methanesulfonyl-amino}-ethoxy)-ethoxymethyl]-benzoic acid methyl ester], the figure is more than 1000 nM; as for `CNC(=O)c1c(-c2ccc(F)cc2)oc2cc(N(CCOCCOCCOCc3ccccc3C(=O)OC)S(C)(=O)=O)c(C3CC3)cc12` [Compound 06-6D, 2-{2-[2-(2-{[5-Cyclopropyl-2-(4-fluoro-phenyl)-3-methylcarbamoyl-benzofuran-6-yl]-methanesulfonyl-amino}-ethoxy)-ethoxy]-ethoxymethyl}-benzoic acid methyl ester], 100 to 1000 nM. As for `CNC(=O)c1c(-c2ccc(F)cc2)oc2cc(N(CCOCCOCCOCc3ccc(C(=O)OC)cc3)S(C)(=O)=O)c(C3CC3)cc12` [Compound 06-6E, 4-{2-[2-(2-{[5-Cyclopropyl-2-(4-fluoro-phenyl)-3-methylcarbamoyl-benzofuran-6-yl]-methanesulfonyl-amino}-ethoxy)-ethoxy]-ethoxymethyl}-benzoic acid methyl ester], the figure is 100 to 1000 nM; as for `CNC(=O)c1c(-c2ccc(F)cc2)oc2cc(N(CCOCCOCCOCc3cccc(C(=O)OC)c3)S(C)(=O)=O)c(C3CC3)cc12` [Compound 06-6F, 3-{2-[2-(2-{[5-Cyclopropyl-2-(4-fluoro-phenyl)-3-methylcarbamoyl-benzofuran-6-yl]-methanesulfonyl-amino}-ethoxy)-ethoxy]-ethoxymethyl}-benzoic acid methyl ester], more than 1000 nM.

As for `CNC(=O)c1c(-c2ccc(F)cc2)oc2cc(N(CCOCCOCCOCc3ccccc3C(=O)O)S(C)(=O)=O)c(C3CC3)cc12` [Compound 06-7D, 2-{2-[2-(2-{[5-Cyclopropyl-2-(4-fluoro-phenyl)-3-methylcarbamoyl-benzofuran-6-yl]-methanesulfonyl-amino}-ethoxy)-ethoxy]-ethoxymethyl}-benzoic Acid], the IC50 fell in the range of 100 to 1000 nM.

Regarding `CNC(=O)c1c(-c2ccc(F)cc2)oc2cc(N(CCOCCOCCOCc3ccc(C(=O)O)cc3)S(C)(=O)=O)c(C3CC3)cc12` [Compound 06-7E, 4-{2-[2-(2-{[5-Cyclopropyl-2-(4-fluoro-phenyl)-3-methylcarbamoyl-benzofuran-6-yl]-methanesulfonyl-amino}-ethoxy)-ethoxy]-ethoxymethyl}-benzoic Acid], the IC50 lay in the range of 100 to 1000 nM.

Consider `CNC(=O)c1c(-c2ccc(F)cc2)oc2cc(N(CCOCCOCCOCc3cccc(C(=O)O)c3)S(C)(=O)=O)c(C3CC3)cc12` [Compound 06-7F, 3-{2-[2-(2-{[5-Cyclopropyl-2-(4-fluoro-phenyl)-3-methylcarbamoyl-benzofuran-6-yl]-methanesulfonyl-amino}-ethoxy)-ethoxy]-ethoxymethyl}-benzoic Acid], for which the IC50 is less than 100 nM. The figure for `CCOC(=O)c1ccc(COCCOCCN(c2cc3oc(-c4ccc(F)cc4)c(C(=O)NC)c3cc2C2CC2)S(C)(=O)=O)cc1` [Compound 06-8B1, 4-[2-(2-{[5-Cyclopropyl-2-(4-fluoro-phenyl)-3-methylcarbamoyl-benzofuran-6-yl]-methanesulfonyl-amino}-ethoxy)-ethoxymethyl]-benzoic Acid Ethyl Ester] is more than 1000 nM; for `CCCCOC(=O)c1ccc(COCCOCCN(c2cc3oc(-c4ccc(F)cc4)c(C(=O)NC)c3cc2C2CC2)S(C)(=O)=O)cc1` [Compound 06-8B3, 4-[2-(2-{[5-Cyclopropyl-2-(4-fluoro-phenyl)-3-methylcarbamoyl-benzofuran-6-yl]-methanesulfonyl-amino}-ethoxy)-ethoxymethyl]-benzoic Acid Butyl Ester] it is 100 to 1000 nM. As for `CCCCCOC(=O)c1ccc(COCCOCCN(c2cc3oc(-c4ccc(F)cc4)c(C(=O)NC)c3cc2C2CC2)S(C)(=O)=O)cc1` [Compound 06-8B4, 4-[2-(2-{[5-Cyclopropyl-2-(4-fluoro-phenyl)-3-methylcarbamoyl-benzofuran-6-yl]-methanesulfonyl-amino}-ethoxy)-ethoxymethyl]-benzoic Acid Pentyl Ester], the IC50 was 100 to 1000 nM.

With `CNC(=O)c1c(-c2ccc(F)cc2)oc2cc(N(CCOCCOCc3ccc(C(=O)OCC(N)=O)cc3)S(C)(=O)=O)c(C3CC3)cc12` [Compound 06-8B5, 4-[2-(2-{[5-Cyclopropyl-2-(4-fluoro-phenyl)-3-methylcarbamoyl-benzofuran-6-yl]-methanesulfonyl-amino}-ethoxy)-ethoxymethyl]-benzoic Acid Carbamoylmethyl Ester], the IC50 fell in the range of 100 to 1000 nM. `CNC(=O)c1c(-c2ccc(F)cc2)oc2cc(N(CCOCCOCc3ccc(C(=O)OCSC)cc3)S(C)(=O)=O)c(C3CC3)cc12` [Compound 06-8B6, 4-[2-(2-{[5-Cyclopropyl-2-(4-fluoro-phenyl)-3-methylcarbamoyl-benzofuran-6-yl]-methanesulfonyl-amino}-ethoxy)-ethoxymethyl]-benzoic Acid Methylsulfanylmethyl Ester]: the IC50 fell in the range of 100 to 1000 nM. Consider `CNC(=O)c1c(-c2ccc(F)cc2)oc2cc(N(CCOCCOCc3ccc(C(=O)OCc4ccccc4)cc3)S(C)(=O)=O)c(C3CC3)cc12` [Compound 06-8B7, 4-[2-(2-{[5-Cyclopropyl-2-(4-fluoro-phenyl)-3-methylcarbamoyl-benzofuran-6-yl]-methanesulfonyl-amino}-ethoxy)-ethoxymethyl]-benzoic Acid Benzyl Ester], for which the IC50 was 100 to 1000 nM. For `CCOC(=O)COC(=O)c1ccc(COCCOCCN(c2cc3oc(-c4ccc(F)cc4)c(C(=O)NC)c3cc2C2CC2)S(C)(=O)=O)cc1` [Compound 06-8B8, 4-[2-(2-{[5-Cyclopropyl-2-(4-fluoro-phenyl)-3-methylcarbamoyl-benzofuran-6-yl]-methanesulfonyl-amino}-ethoxy)-ethoxymethyl]-benzoic Acid Ethoxycarbonylmethyl Ester], the IC50 lay within 100 to 1000 nM. Turning to `CNC(=O)c1c(-c2ccc(F)cc2)oc2cc(N(CCNC(=O)CNC(=O)CCCC(=O)O)S(C)(=O)=O)c(C3CC3)cc12` [Compound 07-7, 4-{[(2-{[5-Cyclopropyl-2-(4-fluoro-phenyl)-3-methylcarbamoyl-benzofuran-6-yl]-methanesulfonyl-amino}-ethylcarbamoyl)-methyl]-carbamoyl}-butyric Acid], the IC50 is more than 1000 nM. As for `CNC(=O)c1c(-c2ccc(F)cc2)oc2cc(N(CCNC(=O)CNC(=O)c3cccc(CCCC(=O)O)c3)S(C)(=O)=O)c(C3CC3)cc12` [Compound 07-10, 4-(3-{[(2-{[5-Cyclopropyl-2-(4-fluoro-phenyl)-3-methylcarbamoyl-benzofuran-6-yl]-methanesulfonyl-amino}-ethylcarbamoyl)-methyl]-carbamoyl}-phenyl)-butyric Acid], the figure is more than 1000 nM.
